Reference: ChEMBL document CHEMBL2380242, “Discovery of novel orally bioavailable GPR40 agonists” (Bioorg Med Chem Lett, 2013)
Active and inactive are the calls of the source. The rule behind the calls is not given here.

What was measured:
Mus musculus [1] = experiment: Antidiabetic activity in high fat feasted ICR mouse assessed as inhibition of blood glucose excursion administered 15 mins prior to dextrose challenge measured for 120 mins by OGTT relative to control; type: functional
[2] = biological target: T1, Free fatty acid receptor 1 (Homo sapiens, UniProt O14842); experiment: Agonist activity at human GPR40 transfected in CHO cells by calcium flux assay relative to TAK-875; type: functional, cell-based
T1 sequence (O14842 whole entry): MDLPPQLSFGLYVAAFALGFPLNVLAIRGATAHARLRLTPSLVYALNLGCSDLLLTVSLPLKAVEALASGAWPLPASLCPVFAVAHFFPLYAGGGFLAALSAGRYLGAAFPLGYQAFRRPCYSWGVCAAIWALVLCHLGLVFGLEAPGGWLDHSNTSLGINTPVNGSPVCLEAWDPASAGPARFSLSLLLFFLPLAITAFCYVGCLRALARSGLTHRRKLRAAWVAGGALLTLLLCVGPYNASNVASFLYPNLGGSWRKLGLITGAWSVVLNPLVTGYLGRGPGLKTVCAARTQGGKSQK

[3] = biological target: T1, Free fatty acid receptor 1; experiment: Agonist activity at human GPR40 transfected in CHO cells by calcium flux assay; type: functional, cell-based
[4] = biological target: T2, Free fatty acid receptor 2 (Homo sapiens) (UniProt O15552); experiment: Agonist activity at GPR43 (unknown origin) up to 10 uM
T2 sequence (whole entry): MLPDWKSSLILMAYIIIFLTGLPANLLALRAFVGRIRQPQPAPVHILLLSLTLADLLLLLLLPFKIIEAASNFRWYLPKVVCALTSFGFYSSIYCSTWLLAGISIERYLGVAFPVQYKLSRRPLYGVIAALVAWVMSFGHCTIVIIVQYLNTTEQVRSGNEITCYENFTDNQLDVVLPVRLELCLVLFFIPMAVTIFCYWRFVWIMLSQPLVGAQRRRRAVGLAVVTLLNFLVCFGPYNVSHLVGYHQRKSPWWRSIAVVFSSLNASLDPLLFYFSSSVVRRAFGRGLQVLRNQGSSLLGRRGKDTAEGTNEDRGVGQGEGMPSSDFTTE

[5] = biological target: T3, Free fatty acid receptor 3 (Homo sapiens) (UniProt O14843); experiment: Agonist activity at GPR41 (unknown origin) up to 10 uM
T3 sequence (whole entry): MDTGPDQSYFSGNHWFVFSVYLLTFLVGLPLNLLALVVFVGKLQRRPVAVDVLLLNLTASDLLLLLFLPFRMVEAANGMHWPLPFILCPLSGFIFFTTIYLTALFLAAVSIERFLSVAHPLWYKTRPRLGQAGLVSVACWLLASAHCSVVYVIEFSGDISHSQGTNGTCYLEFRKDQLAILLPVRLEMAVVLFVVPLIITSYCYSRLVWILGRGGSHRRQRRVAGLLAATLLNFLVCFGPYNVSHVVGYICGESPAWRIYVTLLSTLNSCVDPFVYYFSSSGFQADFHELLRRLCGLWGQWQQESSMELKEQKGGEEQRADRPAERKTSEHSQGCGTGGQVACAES

Rhesus monkey [6] = experiment: Antidiabetic activity in obese type 2 diabetic rhesus monkey model assessed as inhibition of blood glucose excursion at 6 mg/kg, po administered 1 to 2 hrs prior to dextrose challenge measured for 120 mins by IVGTT relative to control; type: functional; details: Macaca mulatta
Rhesus monkey [7] = experiment: Antidiabetic activity in obese type 2 diabetic rhesus monkey model assessed as inhibition of blood glucose excursion at 6 mg/kg, po administered 1 to 2 hrs prior to dextrose challenge measured for 60 mins by IVGTT relative to control; type: functional; details: Macaca mulatta
[8] = biological target: Free fatty acid receptor 1 (Rattus norvegicus, UniProt Q8K3T4); experiment: Agonist activity at GPR40 in rat INS-1 cells assessed as glucose-stimulated insulin secretion; type: cell-based, INS1
Free fatty acid receptor 1 (Rattus norvegicus, UniProt Q8K3T4), sequence (Q8K3T4 whole entry): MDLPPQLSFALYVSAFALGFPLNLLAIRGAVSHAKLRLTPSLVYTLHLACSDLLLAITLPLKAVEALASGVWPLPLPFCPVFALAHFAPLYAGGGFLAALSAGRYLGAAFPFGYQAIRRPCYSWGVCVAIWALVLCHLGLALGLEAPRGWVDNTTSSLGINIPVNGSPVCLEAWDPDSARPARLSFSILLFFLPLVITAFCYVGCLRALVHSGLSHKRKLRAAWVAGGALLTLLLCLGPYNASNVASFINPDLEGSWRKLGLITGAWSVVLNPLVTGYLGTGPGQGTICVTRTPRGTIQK

[9] = biological target: Free fatty acid receptor 1 (Rattus norvegicus) (UniProt Q8K3T4); experiment: Agonist activity at GPR40 in rat INS-1 cells assessed as glucose-stimulated insulin secretion relative to TAK-875; type: cell-based; details: INS1
Free fatty acid receptor 1 (Rattus norvegicus), sequence (Q8K3T4 whole entry): as above

[10] = Cmax in cynomolgus monkey at 6 mg/kg, po; type: ADME, organism-based, Macaca fascicularis; design: dose 6 mg/kg, route oral; details: in vivo
[11] = Cmax in rat at 5 mg/kg, po; type: ADME, organism-based; design: dose 5 mg/kg, route oral; details: in vivo
[12] = Cmax in beagle dog at 1 mg/kg, po; type: ADME, organism-based, Canis lupus familiaris; design: dose 1 mg/kg, route oral; details: in vivo
[13] = AUC in cynomolgus monkey at 6 mg/kg, po; type: ADME, organism-based, Macaca fascicularis; design: dose 6 mg/kg, route oral; details: plasma
[14] = AUC in beagle dog at 1 mg/kg, po; type: ADME, organism-based, Canis lupus familiaris; design: dose 1 mg/kg, route oral; details: plasma
[15] = AUC in rat at 5 mg/kg, po; type: ADME, organism-based; design: dose 5 mg/kg, route oral; details: plasma
[16] = Half life in cynomolgus monkey at 6 mg/kg, po; type: ADME, organism-based, Macaca fascicularis; design: dose 6 mg/kg, route oral; details: in vivo
[17] = Half life in beagle dog at 1 mg/kg, po; type: ADME, organism-based, Canis lupus familiaris; design: dose 1 mg/kg, route oral; details: in vivo
[18] = Half life in rat at 5 mg/kg, po; type: ADME, organism-based; design: dose 5 mg/kg, route oral; details: in vivo
Canis familiaris = experiment: Volume of distribution in beagle dog at 1 mg/kg, po; type: ADME, organism-based, Canis lupus familiaris; design: dose 1 mg/kg, route oral; details: in vivo
Cynomolgus monkey = experiment: Volume of distribution in cynomolgus monkey at 6 mg/kg, po; type: ADME, organism-based, Macaca fascicularis; design: dose 6 mg/kg, route oral; details: in vivo
Rattus norvegicus = experiment: Volume of distribution in rat at 5 mg/kg, po; type: ADME, organism-based; design: dose 5 mg/kg, route oral; details: in vivo
[19] = Plasma clearance in cynomolgus monkey at 6 mg/kg, po; type: ADME, organism-based, Macaca fascicularis; design: dose 6 mg/kg, route oral
[20] = Plasma clearance in beagle dog at 1 mg/kg, po; type: ADME, organism-based, Canis lupus familiaris; design: dose 1 mg/kg, route oral
[21] = Plasma clearance in rat at 5 mg/kg, po; type: ADME, organism-based; design: dose 5 mg/kg, route oral
Mus musculus [22] = experiment: Antidiabetic activity in high fat feasted ICR mouse assessed as inhibition of blood glucose excursion at 50 mg/kg, po administered 15 mins prior to dextrose challenge measured for 120 mins by OGTT relative to control; type: functional
[23] = Lipophilicity, log D of the compound; type: physicochemical; details: octanol/water
[24] = Inhibition of CYP450 (unknown origin); type: ADME, Homo sapiens
[25] = biological target: T4, Free fatty acid receptor 4 (Homo sapiens) (UniProt Q5NUL3); experiment: Agonist activity at GPR120 (unknown origin) up to 10 uM
T4 sequence (whole entry): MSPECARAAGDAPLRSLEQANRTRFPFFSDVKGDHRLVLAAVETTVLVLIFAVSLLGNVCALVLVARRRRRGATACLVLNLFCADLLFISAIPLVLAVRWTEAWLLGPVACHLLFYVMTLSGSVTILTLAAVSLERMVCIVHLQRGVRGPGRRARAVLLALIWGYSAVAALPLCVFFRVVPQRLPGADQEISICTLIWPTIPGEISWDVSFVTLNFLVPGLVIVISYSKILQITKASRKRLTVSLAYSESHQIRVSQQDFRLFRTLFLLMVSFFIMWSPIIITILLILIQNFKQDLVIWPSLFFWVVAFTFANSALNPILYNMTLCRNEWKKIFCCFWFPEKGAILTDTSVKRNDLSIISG

Rhesus monkey [26] = experiment: Antidiabetic activity in obese type 2 diabetic rhesus monkey model assessed as inhibition of blood glucose excursion at 20 mg/kg, po administered 1 to 2 hrs prior to dextrose challenge measured for 120 mins by IVGTT relative to control; type: functional; details: Macaca mulatta
Rhesus monkey [27] = experiment: Antidiabetic activity in obese type 2 diabetic rhesus monkey model assessed as inhibition of blood glucose excursion at 20 mg/kg, po administered 1 to 2 hrs prior to dextrose challenge measured for 60 mins by IVGTT relative to control; type: functional; details: Macaca mulatta
[28] = Oral bioavailability in rat at 5 mg/kg; type: ADME, organism-based; details: in vivo
Mus musculus [29] = experiment: Antidiabetic activity in high fat feasted ICR mouse assessed as reduction of blood glucose excursion at 20 mg/kg, po administered 15 mins prior to dextrose challenge measured for 120 mins by OGTT; type: functional, organism-based; design: dose 20 mg/kg

Structure (SMILES)	Emax [2]	EC50 [3]	Activity [4]	Activity [5]	inhibition in vivo at 6 mg/kg (Rhesus monkey [6])	Emax [9]	Cmax [10]	Cmax [11]	Cmax [12]	AUC [13]	AUC [14]	AUC [15]	half-life [16]	half-life [17]	half-life [18]	Vd (Cynomolgus monkey)	Vd (Rattus norvegicus)	CL/F [19]	CL/F [21]	inhibition in vivo at 50 mg/kg (Mus musculus [22])	also measured
Cc1ccccc1-c1cccc([C@H]2COc3cc4c(cc3O2)OC[C@H]4CC(=O)O)c1	91%	19.1 nM	–	–	–	–	–	–	–	–	–	–	–	–	–	–	–	–	–	–	inhibition (INH) (Mus musculus [1]): 9.7%
O=C(O)C[C@@H]1COc2cc3c(cc21)OC[C@@H](c1cccc(Br)c1)O3	120%	13.5 nM	inactive	inactive	24.4%	40%	5360 ng/mL	17800 ng/mL	2270 ng/mL	136 µg·h/mL	30600 ng·h/mL	530 µg·h/mL	1080 min	1580 min	1610 min	1.02 L/kg	0.25 L/kg	0.667 mL/min/kg	0.117 mL/min/kg	4.9%	inhibition in vivo at 6 mg/kg (Rhesus monkey [7]): 32.1%; EC50 [8]: 77 nM; Vd (Canis familiaris): 0.93 L/kg; CL/F [20]: 0.5 mL/min/kg; logD [23]: < 3; IC50 [24]: > 50 µM; Activity [25]: inactive
O=C(O)C[C@@H]1COc2cc3c(cc21)OC[C@@H](c1cccc(Cl)c1)O3	87%	34.2 nM	inactive	inactive	10.7%	36.8%	19700 ng/mL	22000 ng/mL	2670 ng/mL	126 µg·h/mL	35600 ng·h/mL	666 µg·h/mL	774 min	1270 min	1650 min	0.85 L/kg	0.21 L/kg	0.833 mL/min/kg	0.0833 mL/min/kg	11%	inhibition in vivo at 20 mg/kg (Rhesus monkey [26]): 13.2%; inhibition in vivo at 6 mg/kg (Rhesus monkey [7]): 7.71%; inhibition in vivo at 20 mg/kg (Rhesus monkey [27]): 16.4%; Vd (Canis familiaris): 0.71 L/kg; CL/F [20]: 0.333 mL/min/kg; logD [23]: < 3; IC50 [24]: > 50 µM; Activity [25]: inactive
O=C(O)C[C@@H]1COc2cc3c(cc21)OC[C@@H](c1cccc(C(F)(F)F)c1)O3	99.5%	11.3 nM	–	–	–	43.6%	7700 ng/mL	19400 ng/mL	2580 ng/mL	54.7 µg·h/mL	47400 ng·h/mL	427 µg·h/mL	984 min	1150 min	966 min	2.38 L/kg	0.23 L/kg	1.67 mL/min/kg	0.167 mL/min/kg	13.3%	bioavailability [28]: 100%
Cc1cc(OCCCS(C)(=O)=O)cc(C)c1-c1cccc(COc2ccc3c(c2)OC[C@H]3CC(=O)O)c1	–	–	–	–	–	–	–	–	–	–	–	–	–	–	–	–	–	–	–	–	inhibition in vivo at 20 mg/kg (Rhesus monkey [26]): 15%; inhibition in vivo at 20 mg/kg (Rhesus monkey [27]): 14.7%; EC50 [8]: 93 nM; Activity (Mus musculus [29]): Active
